Experimental data reported in US20260274894A1, “CYCLIC POLYPEPTIDE COMPOUND AND USE THEREOF” (BIVISION PHARMACEUTICALS, INC., priority 2023, published 2026).
Numbered stars: 1 amine (or outer) side, 2 acyl side, 3 side chain; on linkers, the order of the positions; unused ones are H or OH. Bridge positions count the residues as written; N and C are the ends. Square brackets hold non-standard residues; d marks the D form. Side chains are listed from the residue outwards. Peptide text beside a SMILES is read from it. * marks the point of attachment. ξ: configuration not given here. Acetyl(4-DOTA-piperazinyl) = O=C(O)CN1CCN(CC(=O)O)CCN(CC(=O)N2CCN(CC(=O)*)CC2)CCN(CC(=O)O)CC1; X2 = O=C(O)CN1CCN(CC(=O)O)CCN(CC(=O)N2CCN(CCCN*)CC2)CCN(CC(=O)O)CC1; DOTA = O=C(O)CN1CCN(CC(=O)O)CCN(CC(=O)*)CCN(CC(=O)O)CC1; Azetidine3carboxylic = O=C(C1CN([*:1])C1)[*:2]; mXylylene = c1cc(C[*:1])cc(C[*:2])c1; Cha = N[C@@H](CC1CCCCC1)C(=O)O; Dab = NCC[C@H](N)C(=O)O; Dap = NC[C@H](N)C(=O)O; Aoc = NCCCCCCCC(=O)O; CO = O=C([*:1])[*:2]; ξP = O=C(O)C1CCCN1; ξC = NC(CS)C(=O)O; NHBu = CCCCN*

Columns and labels:
[1] = target: T1, fibroblast activation protein (FAP) (Homo sapiens, UniProt Q12884); assay: Protease inhibition (selectivity) assay, FAP, Z-Gly-Pro-AMC substrate; assay type: biochemical; settings: recombinant human FAP 1.2 nM
T1 sequence (Q12884 1-760): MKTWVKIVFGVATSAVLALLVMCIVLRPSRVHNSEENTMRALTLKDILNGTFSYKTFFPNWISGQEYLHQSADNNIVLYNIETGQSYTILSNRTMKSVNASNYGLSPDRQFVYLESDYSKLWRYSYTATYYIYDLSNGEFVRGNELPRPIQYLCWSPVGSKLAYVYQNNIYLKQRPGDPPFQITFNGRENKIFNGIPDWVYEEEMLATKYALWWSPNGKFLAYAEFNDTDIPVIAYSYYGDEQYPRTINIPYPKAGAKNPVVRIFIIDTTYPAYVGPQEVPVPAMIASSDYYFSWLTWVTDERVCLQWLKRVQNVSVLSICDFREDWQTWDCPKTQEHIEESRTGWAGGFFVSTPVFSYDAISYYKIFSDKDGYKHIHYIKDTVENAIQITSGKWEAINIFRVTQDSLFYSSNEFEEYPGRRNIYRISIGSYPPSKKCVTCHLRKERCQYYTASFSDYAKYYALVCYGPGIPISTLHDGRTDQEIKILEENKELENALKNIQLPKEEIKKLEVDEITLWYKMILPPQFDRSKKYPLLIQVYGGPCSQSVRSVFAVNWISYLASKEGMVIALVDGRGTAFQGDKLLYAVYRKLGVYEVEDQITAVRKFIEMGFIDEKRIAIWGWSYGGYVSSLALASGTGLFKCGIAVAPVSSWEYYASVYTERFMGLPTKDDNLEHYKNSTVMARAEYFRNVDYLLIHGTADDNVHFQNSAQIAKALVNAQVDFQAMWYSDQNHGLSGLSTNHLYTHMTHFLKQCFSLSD
Description: (§1) The specificity of the synthesized compounds for recombinant human dipeptidyl peptidase IV (DPPIV), fibroblast activation protein (FAP), or prolyl oligopeptidase (PREP) was expressed by their half-maximal inhibitory concentration (IC50) against the proteases. […] No. I-1145.0050BA) in DMSO; DPPIV: 100 mM Gly-Pro-AMC (VWR, Cat. No. 100042-646) in DMSO), and the stock solution of the substrate was subsequently diluted 20-fold using the corresponding buffer described above. • 4) The enzyme was diluted into an appropriate assay buffer. […] Column 1 (A, B, C) was prepared using 200 μL of an appropriate analysis buffer as a control. Column 1 (D, E, F, G, H) was prepared with 20 μL of an appropriate assay buffer and 180 μL of the enzyme as the inhibitor-free control. • 5) Where appropriate, 20 μL of the test compound was added from the dilution plate prepared in step 2 to columns 2-10 of the assay plate. Each sample should be tested in triplicate. It was incubated at room temperature for 10 minutes, with the plate being shaken for the first two minutes. • 6) 10 μL of the 20× substrate prepared in step 3 was added to each well and incubated at room temperature for 15 minutes, with the plate being shaken for the first two minutes. • 7) Fluorescence was read at λex:380 and λem:460.

[2] = target: dipeptidyl peptidase IV (DPPIV) (Homo sapiens, UniProt P27487); assay: Protease inhibition (selectivity) assay, DPPIV, Gly-Pro-AMC substrate; assay type: biochemical; settings: recombinant human DPPIV 0.1 nM; read-out: pIC50 (DPPIV) (converted)
Description: as §1

FAP protein = target: T2, FAP protein (Homo sapiens, UniProt Q12884); assay: Biacore test of compound affinity to FAP protein; settings: Biacore 8K, SA chip, 15° C., 1:1 binding model; read-out: pKD (FAP) (converted)
T2 construct: purchased Sinobiological
T2 sequence (Q12884 1-760): T1 sequence (Q12884 1-760)
In short: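 FAP captured on an SA chip; compounds run as analyte in single-cycle kinetics at 15° C (90 s contact, 1800 s dissociation, 30 μL/min), reference-subtracted (2-1). Sensorgrams fitted to a 1:1 binding model to give KD, reported as pKD = −log KD.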

[3] = target: T3, prolyl oligopeptidase (PREP) (Homo sapiens, UniProt P48147); assay: Protease inhibition (selectivity) assay, PREP, Z-Gly-Pro-AMC substrate; assay type: biochemical; settings: recombinant human PREP 0.6 nM
T3 sequence (P48147 1-710): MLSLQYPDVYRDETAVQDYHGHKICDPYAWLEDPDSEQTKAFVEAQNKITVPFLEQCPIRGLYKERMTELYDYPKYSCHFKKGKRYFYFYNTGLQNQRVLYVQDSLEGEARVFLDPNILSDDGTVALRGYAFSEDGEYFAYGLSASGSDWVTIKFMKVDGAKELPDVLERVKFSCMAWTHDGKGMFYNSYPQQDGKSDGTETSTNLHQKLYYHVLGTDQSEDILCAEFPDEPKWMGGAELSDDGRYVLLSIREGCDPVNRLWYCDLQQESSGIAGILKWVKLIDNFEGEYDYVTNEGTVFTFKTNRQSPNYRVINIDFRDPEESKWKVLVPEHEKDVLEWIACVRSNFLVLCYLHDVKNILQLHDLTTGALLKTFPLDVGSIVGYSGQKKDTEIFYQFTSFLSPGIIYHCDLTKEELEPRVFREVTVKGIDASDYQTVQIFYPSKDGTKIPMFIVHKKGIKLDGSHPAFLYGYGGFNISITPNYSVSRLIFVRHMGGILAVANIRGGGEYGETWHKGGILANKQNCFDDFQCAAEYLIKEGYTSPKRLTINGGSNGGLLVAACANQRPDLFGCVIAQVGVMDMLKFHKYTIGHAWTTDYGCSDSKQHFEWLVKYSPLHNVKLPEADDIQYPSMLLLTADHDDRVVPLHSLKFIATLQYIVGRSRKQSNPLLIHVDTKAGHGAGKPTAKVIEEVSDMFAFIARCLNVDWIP
Description: as §1

[4] = Animal body weight after injection of ^177Lu-labeled compound; settings: Day 2
Description: 6- to 8-week-old (Balb/c Nude) mice were subcutaneously inoculated on the right scapula with 2×10^6 cells of HT1080 2 # (50% o Matrigel, Corning). When the tumors grew to the size as required by the assay, the animals were randomly assigned to 13 experimental groups based on tumor volume, with 5 animals per group. The body weight and tumor size were measured. On the day of grouping, administration was initiated for the control group (normal saline) and groups 1-12. General health and appearance were observed daily after the experiment began. Body weight and tumor size were measured prior to each sample collection time point. Any abnormal observations found during the entire study period were required to be recorded in the raw data.

Chain of dipeptidyl peptidase IV (DPPIV) (P27487 whole entry): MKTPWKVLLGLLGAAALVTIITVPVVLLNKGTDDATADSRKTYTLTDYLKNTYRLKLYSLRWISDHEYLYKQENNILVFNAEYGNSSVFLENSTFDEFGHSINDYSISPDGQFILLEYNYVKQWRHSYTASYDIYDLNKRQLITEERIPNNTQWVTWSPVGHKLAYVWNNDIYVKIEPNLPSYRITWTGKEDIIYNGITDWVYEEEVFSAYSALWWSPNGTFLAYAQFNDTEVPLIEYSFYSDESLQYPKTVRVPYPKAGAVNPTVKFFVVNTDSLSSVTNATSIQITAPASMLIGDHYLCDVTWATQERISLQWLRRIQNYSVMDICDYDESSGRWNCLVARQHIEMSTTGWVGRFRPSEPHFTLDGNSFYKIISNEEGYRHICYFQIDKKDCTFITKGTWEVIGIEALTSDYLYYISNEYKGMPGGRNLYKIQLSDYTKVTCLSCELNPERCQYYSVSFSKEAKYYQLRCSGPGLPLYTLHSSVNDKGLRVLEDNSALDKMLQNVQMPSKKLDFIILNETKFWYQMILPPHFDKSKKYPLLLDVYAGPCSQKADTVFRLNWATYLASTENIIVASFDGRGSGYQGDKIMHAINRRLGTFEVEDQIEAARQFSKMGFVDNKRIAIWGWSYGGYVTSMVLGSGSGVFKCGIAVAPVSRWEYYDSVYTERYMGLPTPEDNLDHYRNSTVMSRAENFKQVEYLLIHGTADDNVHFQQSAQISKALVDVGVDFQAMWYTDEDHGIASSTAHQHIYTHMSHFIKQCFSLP

| Structure (SMILES) | IC50 [1] | IC50 [2] | Kd (FAP protein) | IC50 [3] | Animal body weight [4] |
| --- | --- | --- | --- | --- | --- |
| CCCCNC(=O)N[C@H]1CSCc2cccc(c2)CSCC(C(=O)N[C@@H](CNC(=O)CN2CCN(C(=O)CN3CCN(CC(=O)O)CCN(CC(=O)O)CCN(CC(=O)O)CC3)CC2)C(=O)O)NC(=O)[C@H](CC2CCCCC2)NC(=O)[C@H](CCC(N)=O)NC(=O)[C@H]([C@@H](C)O)NC(=O)C2CCCN2C(=O)C2CN(C2)C1=O (stereo partly drawn) [JHDC47, nBu-urea-[Cys(3MeBn)-hhy39-Pro-Thr-Gln-hhy34-Cys]-DAPA-(Ac-piperazine-DOTA)-OH] ({NHBu-CO}-C[Azetidine3carboxylic][ξP]TQ[Cha][ξC][Dap](Acetyl(4-DOTA-piperazinyl))-OH; linker 1-7 via mXylylene) | < 10 nM | > 1000 nM | < 10 nM | > 1000 nM | – |
| CCCCNC(=O)N[C@H]1CSCc2cccc(c2)CSC[C@@H](C(=O)N[C@@H](CCC(=O)NCCCN2CCN(C(=O)CN3CCN(CC(=O)O)CCN(CC(=O)O)CCN(CC(=O)O)CC3)CC2)C(=O)O)NC(=O)[C@H](Cc2ccccc2)NC(=O)[C@H](CCC(N)=O)NC(=O)[C@H]([C@@H](C)O)NC(=O)C2CCCN2C(=O)C2CN(C2)C1=O (stereo partly drawn) [JHDC48, nBu-urea-[Cys(3MeBn)-hhy39-Pro-Thr-Gln-Phe-Cys]-Glu-(aminopropylpiperazine-DOTA)-OH] ({NHBu-CO}-C[Azetidine3carboxylic][ξP]TQFCE(X2)-OH; linker 1-7 via mXylylene) | < 10 nM | > 1000 nM | 10 to 100 nM | > 1000 nM | – |
| CCCCNC(=O)N[C@H]1CSCc2cccc(c2)CSCC(C(=O)N[C@@H](CCNC(=O)CCCCCCCNC(=O)CN2CCN(CC(=O)O)CCN(CC(=O)O)CCN(CC(=O)O)CC2)C(=O)O)NC(=O)[C@H](CC2CCCCC2)NC(=O)[C@H](CCC(N)=O)NC(=O)[C@H]([C@@H](C)O)NC(=O)C2CCCN2C(=O)C2CN(C2)C1=O (stereo partly drawn) [JHDC53, nBu-urea-[Cys(3MeBn)-hhy39-Pro-Thr-Gln-hhy34-Cys]-DABA-(AOA-DOTA)-OH] ({NHBu-CO}-C[Azetidine3carboxylic][ξP]TQ[Cha][ξC][Dab]([Aoc-DOTA])-OH; linker 1-7 via mXylylene) | < 10 nM | > 1000 nM | 10 to 100 nM | > 1000 nM | – |
| CCCCNC(=O)N[C@H]1CSCc2cccc(c2)CSCC(C(=O)N[C@@H](CCNC(=O)CNC(=O)CN2CCN(CC(=O)O)CCN(CC(=O)O)CCN(CC(=O)O)CC2)C(=O)O)NC(=O)[C@H](CC2CCCCC2)NC(=O)[C@H](CCC(N)=O)NC(=O)[C@H]([C@@H](C)O)NC(=O)[C@@H]2CCCN2C(=O)C2CN(C2)C1=O (stereo partly drawn) [JHDC56, nBu-urea-[Cys(3MeBn)-hhy39-Pro-Thr-Gln-hhy34-Cys]-DABA-(Gly-DOTA)-OH] | < 10 nM | > 1000 nM | < 10 nM | > 1000 nM | – |
| CCCCNC(=O)N[C@H]1CSCc2cccc(c2)CSCC(C(=O)N[C@@H](CNC(=O)CN2CCN(C(=O)CN3CCN(CC(=O)O)CCN(CC(=O)O)CCN(CC(=O)O)CC3)CC2)C(=O)O)NC(=O)[C@H](CC2CCCCC2)NC(=O)[C@H](CCC(N)=O)NC(=O)[C@H]([C@@H](C)O)NC(=O)C2CCCN2C(=O)C2CN(C2)C1=O (some centres unmarked) [^177Lu-JHDC47, metal not drawn] ({NHBu-CO}-C[Azetidine3carboxylic][ξP]TQ[Cha][ξC][Dap](Acetyl(4-DOTA-piperazinyl))-OH; linker 1-7 via mXylylene) | – | – | – | – | 16.00 ± 0.54 g |
